The text below walks through data of patent publication US10344025B2, “GLS1 inhibitors for treating disease” (Board of Regents, The University of Texas System, priority 2014, dated 2019).

Test [1] concerns the target purified recombinant human GAC (GLS1) (Homo sapiens (Human), UniProt O94925). The test is described as follows: GLS1 Enzymatic Activity Assay (dual-coupled enzymatic assay, resorufin/Amplex UltraRed readout).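 Note: glutamate from GAC coupled via glutamate oxidase and peroxidase to resorufin, read as fluorescence (ex 530, em 590 nm) kinetically or at 20 min, four-parameter logistic IC50 fit.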 The test is classed as biochemical.
Test [2] has as its system A549 cells. Briefly: Proliferation Assay (A549 viability, Cell Titer Fluor, 72 hours). The test is classed as cell-based. The conditions noted are these: Homo sapiens, A549, 72 h. Put shortly: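 A549 cells seeded at 1000 cells/well, rested 24 h, then exposed to compound in 0.5% DMSO for 72 h at 37 °C. Viability read by Cell Titer Fluor fluorescence; IC50 from four-parameter logistic fit.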

A value given as a limit tells only on which side of the number the result lay.

Sequence of purified recombinant human GAC (GLS1) (O94925 other isoform, or with tags, fused parts or gaps): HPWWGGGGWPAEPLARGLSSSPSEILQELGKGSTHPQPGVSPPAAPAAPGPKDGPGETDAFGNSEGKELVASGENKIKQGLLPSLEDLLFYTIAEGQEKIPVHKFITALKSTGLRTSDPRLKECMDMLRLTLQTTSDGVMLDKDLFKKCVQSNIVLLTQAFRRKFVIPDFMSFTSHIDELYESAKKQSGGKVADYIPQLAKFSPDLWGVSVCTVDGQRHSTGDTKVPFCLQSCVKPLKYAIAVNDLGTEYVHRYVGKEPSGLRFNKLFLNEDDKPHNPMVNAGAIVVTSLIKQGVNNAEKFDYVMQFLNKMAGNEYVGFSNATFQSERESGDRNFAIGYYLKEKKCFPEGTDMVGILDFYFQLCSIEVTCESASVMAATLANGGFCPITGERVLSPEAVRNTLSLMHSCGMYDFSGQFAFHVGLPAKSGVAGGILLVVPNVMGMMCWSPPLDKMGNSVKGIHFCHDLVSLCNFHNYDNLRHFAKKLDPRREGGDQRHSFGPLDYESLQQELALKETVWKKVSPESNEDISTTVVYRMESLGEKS

With `O=C(Cc1cccc(OC(F)(F)F)c1)Nc1cn(CCC(F)Cn2cc(C(=O)NCc3cccc(OC(F)(F)F)c3)nn2)nn1` (centres unmarked) [Example 408, 1-[2-fluoro-4-(4-{2-[3-(trifluoromethoxy)phenyl]acetamido}-1H-1,2,3-triazol-1-yl)butyl]-N-{[3-(trifluoromethoxy)phenyl]methyl}-1H-1,2,3-triazole-4-carboxamide], the IC50 in test [1] is under 100 nM. Also, in test [2], the EC50 was under 100 nM.
As to `O=C(CN1CC(F)C1)Nc1cn(CC(F)CCn2cc(C(=O)NCc3ncccc3F)nn2)nn1` (centres unmarked) [Example 409, 1-(3-fluoro-4-{4-[2-(3-fluoroazetidin-1-yl)acetamido]-1H-1,2,3-triazol-1-yl}butyl)-N-[(3-fluoropyridin-2-yl)methyl]-1H-1,2,3-triazole-4-carboxamide], in test [1], the IC50 lay within 500 to 5000 nM. Moreover, the EC50 in test [2] was over 5000 nM.
Consider `O=C(CN1CC(F)(F)C1)Nc1cn(CC(F)CCn2cc(C(=O)NCc3ncccc3F)nn2)nn1` (centres unmarked) [Example 410, 1-(4-{4-[2-(3,3-difluoroazetidin-1-yl)acetamido]-1H-1,2,3-triazol-1-yl}-3-fluorobutyl)-N-[(3-fluoropyridin-2-yl)methyl]-1H-1,2,3-triazole-4-carboxamide], for which the IC50 in test [1] fell in the range of 500 to 5000 nM. The molecule further had an EC50 in test [2] of 500 to 5000 nM.
`O=C(Cc1cccc(OC(F)(F)F)c1)Nc1cn(CC(F)CCn2cc(C(=O)NCc3ccc(C(F)(F)F)nc3)nn2)nn1` (centres unmarked) [Example 411, 1-[3-fluoro-4-(4-{2-[3-(trifluoromethoxy)phenyl]acetamido}-1H-1,2,3-triazol-1-yl)butyl]-N-{[6-(trifluoromethyl)pyridin-3-yl]methyl}-1H-1,2,3-triazole-4-carboxamide]: in test [1], the 50% inhibitory concentration (IC50) is under 100 nM. For the same molecule, in test [2], the EC50 is under 100 nM.
Turning to `O=C(Cc1cc(OC(F)(F)F)ccc1F)Nc1cn(CC(F)CCn2cc(C(=O)NCc3ccc(C(F)(F)F)nc3)nn2)nn1` (centres unmarked) [Example 412, 1-[3-fluoro-4-(4-{2-[2-fluoro-5-(trifluoromethoxy)phenyl]acetamido}-1H-1,2,3-triazol-1-yl)butyl]-N-{[6-(trifluoromethyl)pyridin-3-yl]methyl}-1H-1,2,3-triazole-4-carboxamide], the IC50 in test [1] was under 100 nM. In test [2], this molecule came in with an EC50 of under 100 nM.
For `O=C(Cc1cc(OC(F)(F)F)ccc1F)Nc1cn(CCCCn2cc(C(=O)NCc3cc(C(F)(F)F)ccn3)nn2)nn1` [Example 413, 1-[4-(4-{2-[2-fluoro-5-(trifluoromethoxy)phenyl]acetamido}-1H-1,2,3-triazol-1-yl)butyl]-N-{[4-(trifluoromethyl)pyridin-2-yl]methyl}-1H-1,2,3-triazole-4-carboxamide], in test [1], the 50% inhibitory concentration (IC50) is under 100 nM. Besides, the EC50 in test [2] is under 100 nM.
As to `O=C(Cc1cccc(OC(F)(F)F)c1)Nc1cn(CCCCn2cc(C(=O)NCc3cc(C(F)(F)F)ccn3)nn2)nn1` [Example 414, 1-[4-(4-{2-[3-(trifluoromethoxy)phenyl]acetamido}-1H-1,2,3-triazol-1-yl)butyl]-N-{[4-(trifluoromethyl)pyridin-2-yl]methyl}-1H-1,2,3-triazole-4-carboxamide], the IC50 in test [1] is under 100 nM. Besides, the 50% effective concentration (EC50) in test [2] is under 100 nM.
Consider `O=C(Cc1cc(Cl)ccc1F)Nc1cn(CCCCn2cc(C(=O)NCc3cc(Cl)ccc3F)nn2)nn1` [Example 415, 1-(4-{4-[2-(5-chloro-2-fluorophenyl)acetamido]-1H-1,2,3-triazol-1-yl}butyl)-N-[(5-chloro-2-fluorophenyl)methyl]-1H-1,2,3-triazole-4-carboxamide], for which the IC50 in test [1] was under 100 nM. This molecule returned an EC50 in test [2] of under 100 nM.
Turning to `O=C(Cc1cc(OC(F)(F)F)ccc1F)Nc1cn(CCC(F)Cn2cc(C(=O)NCc3cccc(OC(F)(F)F)c3)nn2)nn1` (centres unmarked) [Example 416, 1-[2-fluoro-4-(4-{2-[2-fluoro-5-(trifluoromethoxy)phenyl]acetamido}-1H-1,2,3-triazol-1-yl)butyl]-N-{[3-(trifluoromethoxy)phenyl]methyl}-1H-1,2,3-triazole-4-carboxamide], in test [1], the half-inhibitory concentration (IC50) was under 100 nM. Besides, in test [2], the half-maximal effective concentration (EC50) is under 100 nM.
Turning to `O=C(Cc1cc(OC(F)(F)F)ccc1F)Nc1cn(CCC(F)Cn2cc(C(=O)NCc3ncccc3F)nn2)nn1` (centres unmarked) [Example 417, 1-[2-fluoro-4-(4-{2-[2-fluoro-5-(trifluoromethoxy)phenyl]acetamido}-1H-1,2,3-triazol-1-yl)butyl]-N-[(3-fluoropyridin-2-yl)methyl]-1H-1,2,3-triazole-4-carboxamide], in test [1], the half-maximal inhibitory concentration (IC50) is under 100 nM. Moreover, in test [2], the EC50 is under 100 nM.
Take `O=C(Cc1cc(OC(F)(F)F)ccc1F)Nc1cn(CCC(F)Cn2cc(C(=O)NCc3cc(C(F)(F)F)ccn3)nn2)nn1` (centres unmarked) [Example 418, 1-[2-fluoro-4-(4-{2-[2-fluoro-5-(trifluoromethoxy)phenyl]acetamido}-1H-1,2,3-triazol-1-yl)butyl]-N-{[4-(trifluoromethyl)pyridin-2-yl]methyl}-1H-1,2,3-triazole-4-carboxamide]: the IC50 in test [1] was under 100 nM. Moreover, in test [2], the EC50 was under 100 nM.
Turning to `O=C(Cc1ccccn1)Nc1cn(CCC(F)Cn2cc(C(=O)NCc3cc(OC(F)(F)F)ccc3F)nn2)nn1` (centres unmarked) [Example 419, 1-(2-fluoro-4-{4-[2-(pyridin-2-yl)acetamido]-1H-1,2,3-triazol-1-yl}butyl)-N-{[2-fluoro-5-(trifluoromethoxy)phenyl]methyl}-1H-1,2,3-triazole-4-carboxamide], in test [1], the half-maximal inhibitory concentration (IC50) was under 100 nM. Moreover, the EC50 in test [2] was under 100 nM.
As to `Cc1ccc(CNC(=O)c2cn(CC(F)CCc3nnc(C(=O)NCc4cccc(OC(F)(F)F)c4)s3)nn2)cn1` (centres unmarked) [Example 420, 5-[3-fluoro-4-(4-{[(6-methylpyridin-3-yl)methyl]carbamoyl}-1H-1,2,3-triazol-1-yl)butyl]-N-{[3-(trifluoromethoxy)phenyl]methyl}-1,3,4-thiadiazole-2-carboxamide], in test [1], the 50% inhibitory concentration (IC50) is under 100 nM. Moreover, in test [2], the concentration giving a half-maximal response (EC50) fell in the range of 100 to 500 nM.
In the case of `O=C(NCc1ccc(C(F)(F)F)nc1)c1cn(CCC(F)Cn2cc(C(=O)NCc3cc(OC(F)(F)F)ccc3F)nn2)nn1` (centres unmarked) [Example 421, 1-{2-fluoro-4-[4-({[6-(trifluoromethyl)pyridin-3-yl]methyl}carbamoyl)-1H-1,2,3-triazol-1-yl]butyl}-N-{[2-fluoro-5-(trifluoromethoxy)phenyl]methyl}-1H-1,2,3-triazole-4-carboxamide], in test [1], the 50% inhibitory concentration (IC50) was under 100 nM. In test [2], this molecule displayed a half-maximal effective concentration (EC50) of under 100 nM.
Turning to `O=C(NCc1cccc(C(F)(F)F)n1)c1cn(CCC(F)Cn2cc(C(=O)NCc3cc(OC(F)(F)F)ccc3F)nn2)nn1` (centres unmarked) [Example 422, 1-{2-fluoro-4-[4-({[6-(trifluoromethyl)pyridin-2-yl]methyl}carbamoyl)-1H-1,2,3-triazol-1-yl]butyl}-N-{[-fluoro-5-(trifluoromethoxy)phenyl]methyl}-1H-1,2,3-triazole-4-carboxamide], the IC50 in test [1] was under 100 nM. In addition, in test [2], the EC50 was under 100 nM.
For `O=C(NCc1cc(OC(F)(F)F)ccc1F)c1cn(CCC(F)Cn2cc(C(=O)NCc3ccc(C(F)(F)F)cn3)nn2)nn1` (centres unmarked) [Example 423, 1-{2-fluoro-4-[4-({[2-fluoro-5-(trifluoromethoxy)phenyl]methyl}carbamoyl)-1H-1,2,3-triazol-1-yl]butyl}-N-{[5-(trifluoromethyl)pyridin-2-yl]methyl}-1H-1,2,3-triazole-4-carboxamide], the 50% inhibitory concentration (IC50) in test [1] was under 100 nM. The EC50 in test [2] is under 100 nM.
